Assay [1] addresses EGFR (Homo sapiens, UniProt P00533). The assay is described as follows: Biochemical EGFR assay (ELISA). Set-up: A431 cell lysate; endogenous in cells; host or cells: A431. The settings on record: read-out: EGFr biochem IC50. In short, it runs like this:
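EGFR is captured from cell lysate onto SUMO1-coated plates and incubated with compound diluted in TBS. The kinase reaction is stopped after 5 min with EDTA. Substrate phosphotyrosine is detected with anti-phosphotyrosine and peroxidase-linked secondary antibody, then ABTS/H2O2 read at 410 nm (reference 630 nm).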

The target in assay [2] is T1, Her2 (Homo sapiens, UniProt P04626).
T1 construct: fused on or other part: P00533 (Epidermal growth factor receptor)
Description: EGF-induced Her2-driven BrdU incorporation. The settings on record: 3T3 cells with EGF-R/Her2 chimeric receptor, EGF 2 nM, read-out: BrdU DNA syn. HER2 IC50. Type of assay: cell-based. The method, then: (§1) The cellular/biologic assays described herein measure the amount of DNA made in response to activation of a test kinase, which is a general measure of a proliferative response. The general procedure for this assay is as follows: a compound is introduced to cells expressing the test kinase, either naturally or recombinantly, for some period of time after which, if the test kinase is a receptor, a ligand known to activate the receptor is added. After incubation at least overnight, a DNA labeling reagent such as Bromodeoxy-uridine (BrdU) or 3H-thymidine is added. The amount of labeled DNA is detected with either an anti-BrdU antibody or by measuring radioactivity and is compared to control cells not contacted with a test compound.
EGF-Induced Her2-Driven BrdU Incorporation
(8) 3T3 cell line engineered to express a chimeric receptor having the extra-cellular domain of EGF-R and the intra-cellular domain of Her2.
(1) Cells are seeded at 8000 cells/well in DMEM, 10% CS, 2 mM Gln in a 96-well plate. Cells are incubated overnight at 37° C. in 5% CO2.
(§2) (2) After 24 hours, the cells are washed with PBS, and then are serum starved in serum free medium (0% CS DMEM with 0.1% BSA) for 24 hours.
(3) On day 3, ligand (EGF=2 nM, prepared in DMEM with 0.1% BSA) and test compounds are added to the cells simultaneously. The negative control wells receive serum free DMEM with 0.1% BSA only; the positive control cells receive the ligand (EGF) but no test compound. Test compounds are prepared in serum free DMEM with ligand in a 96 well plate, and serially diluted for 7 test concentrations.
(4) After 20 hours of ligand activation, diluted BrdU labeling reagent (1:100 in DMEM, 0.1% BSA) is added and the cells are incubated with BrdU (final concentration=[…]) for 1.5 hours.
(§3) (10) The absorbance of the samples are measured at 410 nm (in “dual wavelength” mode with a filter reading at 490 nm, as a reference wavelength) on a Dynatech ELISA plate reader.

Assay [3] deals with T2, PDGFR (Homo sapiens, UniProt P09619). Description: PDGF-induced BrdU incorporation assay. Type of assay: cell-based. Set-up: expressed in transfected cells; host or cells: 3T3. Conditions: 3T3 cells expressing human PDGF-R, PDGF 3.8 nM. The method, then: as §1
PDGF-Induced BrdU Incorporation Assay
(8) 3T3 cell line genetically engineered to express human PDGF-R.
(1) Cells are seeded at 8000 cells/well in DMEM, 10% CS, 2 mM Gln in a 96 well plate. Cells are incubated overnight at 37° C. in 5% CO2.
as §2
(3) On day 3, ligand (PDGF, 3.8 nM, prepared in DMEM with 0.1% BSA) and test compounds are added to the cells simultaneously. The negative control wells receive serum free DMEM with 0.1% BSA only; the positive control cells receive the ligand (PDGF) but no test compound. Test compounds are prepared in serum free DMEM with ligand in a 96 well plate, and serially diluted for 7 test concentrations.
(4) After 20 hours of ligand activation, diluted BrdU labeling reagent (1: 100 in DMEM, 0.1% BSA) is added and the cells are incubated with BrdU (final concentration=10 μM) for 1.5 hours.
as §3

Assay [4] concerns the target T2, PDGFR. Description: Biochemical PDGFR assay (ELISA). Set-up: expressed in transfected cells; host or cells: NIH 3T3. The settings on record: read-out: PDGFr biochem IC50. In short, it runs like this:
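PDGFR-β from NIH 3T3 cell lysate captured on 28D4C10-coated plates; compound preincubated 30 min, then 20 μM ATP for 30 min at room temperature and stopped with EDTA. Phosphotyrosine detected by anti-phosphotyrosine ELISA with peroxidase secondary and ABTS, read at 410 nm.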

Setting [5] is: Table 7, in vitro kinase activity.
[6] abbreviates: Table 7, read-out: BrdU DNA syn. PDGFr IC50.
Setting [7] is: Table 5, in vitro kinase activity.
[8] abbreviates: Table 5, read-out: BrdU DNA syn. PDFGr IC50.

Where two headings read alike, the source gives them in different places.

T2 sequence (P09619 33-1106): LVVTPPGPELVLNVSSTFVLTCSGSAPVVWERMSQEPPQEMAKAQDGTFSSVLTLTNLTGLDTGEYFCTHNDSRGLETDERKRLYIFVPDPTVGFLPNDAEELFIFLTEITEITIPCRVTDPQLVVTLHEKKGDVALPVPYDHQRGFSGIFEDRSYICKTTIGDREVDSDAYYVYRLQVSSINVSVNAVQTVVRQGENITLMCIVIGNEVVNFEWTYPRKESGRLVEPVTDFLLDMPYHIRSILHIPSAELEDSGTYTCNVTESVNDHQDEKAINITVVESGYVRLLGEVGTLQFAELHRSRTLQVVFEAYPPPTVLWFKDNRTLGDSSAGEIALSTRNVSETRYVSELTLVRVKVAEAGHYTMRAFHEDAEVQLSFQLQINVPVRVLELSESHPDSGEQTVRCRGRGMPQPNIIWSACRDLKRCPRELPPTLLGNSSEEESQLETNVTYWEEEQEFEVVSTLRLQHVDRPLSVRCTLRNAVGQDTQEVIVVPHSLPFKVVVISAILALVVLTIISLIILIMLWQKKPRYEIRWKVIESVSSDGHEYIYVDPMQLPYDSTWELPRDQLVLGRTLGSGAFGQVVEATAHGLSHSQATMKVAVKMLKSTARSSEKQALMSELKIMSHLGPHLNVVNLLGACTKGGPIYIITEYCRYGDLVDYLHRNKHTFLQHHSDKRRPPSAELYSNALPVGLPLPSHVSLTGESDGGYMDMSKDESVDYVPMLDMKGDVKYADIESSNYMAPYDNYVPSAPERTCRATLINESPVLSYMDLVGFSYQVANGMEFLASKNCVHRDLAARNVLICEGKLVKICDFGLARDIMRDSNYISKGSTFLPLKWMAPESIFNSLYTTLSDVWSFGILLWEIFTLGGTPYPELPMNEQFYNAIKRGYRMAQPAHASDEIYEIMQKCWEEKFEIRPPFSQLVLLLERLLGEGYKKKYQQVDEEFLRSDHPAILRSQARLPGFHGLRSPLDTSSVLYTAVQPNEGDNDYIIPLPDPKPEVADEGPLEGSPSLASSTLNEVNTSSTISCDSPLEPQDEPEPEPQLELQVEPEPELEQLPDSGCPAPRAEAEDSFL
Sequence of EGFR (P00533 25-1210): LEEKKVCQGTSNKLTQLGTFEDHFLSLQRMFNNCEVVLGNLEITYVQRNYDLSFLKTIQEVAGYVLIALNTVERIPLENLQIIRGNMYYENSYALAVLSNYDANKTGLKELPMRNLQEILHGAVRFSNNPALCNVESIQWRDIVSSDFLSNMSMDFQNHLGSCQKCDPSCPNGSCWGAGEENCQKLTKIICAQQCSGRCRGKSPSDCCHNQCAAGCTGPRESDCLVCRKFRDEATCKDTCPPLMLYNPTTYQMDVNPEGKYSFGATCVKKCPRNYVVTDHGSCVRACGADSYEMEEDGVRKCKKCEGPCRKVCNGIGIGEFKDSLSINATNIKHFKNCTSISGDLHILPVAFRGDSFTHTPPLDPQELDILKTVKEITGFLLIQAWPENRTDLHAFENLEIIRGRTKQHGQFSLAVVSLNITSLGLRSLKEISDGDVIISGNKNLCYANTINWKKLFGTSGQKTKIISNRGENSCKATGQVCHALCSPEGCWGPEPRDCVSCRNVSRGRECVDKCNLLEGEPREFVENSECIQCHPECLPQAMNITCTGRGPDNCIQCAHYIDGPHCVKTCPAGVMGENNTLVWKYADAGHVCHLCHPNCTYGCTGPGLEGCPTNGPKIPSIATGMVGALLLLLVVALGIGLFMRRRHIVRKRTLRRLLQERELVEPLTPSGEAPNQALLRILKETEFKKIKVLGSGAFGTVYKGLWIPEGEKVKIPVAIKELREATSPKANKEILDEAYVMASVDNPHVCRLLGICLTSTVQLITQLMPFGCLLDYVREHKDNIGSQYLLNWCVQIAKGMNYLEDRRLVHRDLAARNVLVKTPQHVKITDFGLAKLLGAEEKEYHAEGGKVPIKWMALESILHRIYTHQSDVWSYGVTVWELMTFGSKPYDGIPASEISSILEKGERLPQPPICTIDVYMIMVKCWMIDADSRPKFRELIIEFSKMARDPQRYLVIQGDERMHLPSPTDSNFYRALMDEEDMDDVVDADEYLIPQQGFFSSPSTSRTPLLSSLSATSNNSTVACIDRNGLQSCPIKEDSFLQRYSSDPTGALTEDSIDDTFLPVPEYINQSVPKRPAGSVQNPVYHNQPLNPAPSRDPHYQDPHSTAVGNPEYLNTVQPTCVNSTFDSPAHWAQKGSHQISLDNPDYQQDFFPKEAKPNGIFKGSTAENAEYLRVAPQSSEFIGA
T1 sequence (P04626 676-1255 limits assumed): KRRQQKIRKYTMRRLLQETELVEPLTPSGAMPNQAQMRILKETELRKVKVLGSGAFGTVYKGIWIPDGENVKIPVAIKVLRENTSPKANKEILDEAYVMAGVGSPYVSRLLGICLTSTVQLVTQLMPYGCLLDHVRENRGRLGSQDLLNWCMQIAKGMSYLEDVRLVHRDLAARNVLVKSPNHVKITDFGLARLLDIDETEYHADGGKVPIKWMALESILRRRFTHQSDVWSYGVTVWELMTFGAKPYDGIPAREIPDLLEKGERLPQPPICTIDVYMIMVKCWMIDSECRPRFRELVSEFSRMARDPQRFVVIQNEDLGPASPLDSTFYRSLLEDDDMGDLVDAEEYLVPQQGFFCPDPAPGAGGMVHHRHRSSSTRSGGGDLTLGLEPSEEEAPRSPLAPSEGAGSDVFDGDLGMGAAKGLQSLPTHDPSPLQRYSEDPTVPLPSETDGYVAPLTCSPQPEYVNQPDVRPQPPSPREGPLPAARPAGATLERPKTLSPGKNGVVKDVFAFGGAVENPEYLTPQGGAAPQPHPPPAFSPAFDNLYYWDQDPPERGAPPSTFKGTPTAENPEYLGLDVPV

Regarding `Cc1ccc(O)c(C=C2C(=O)Nc3cccc(CCO)c32)n1` (racemic) [IN-022, 4-(2-Hydroxy-ethyl)-3-(3-hydroxy-6-methyl-pyridin-2-ylmethylene)-1,3-dihydro-indol-2-one], the IC50 in assay [1] (setting [5]) is over 100 µM; in assay [2] (Table 7), over 50 µM; in assay [3] (setting [6]), over 50 µM; in assay [4] (setting [5]), over 100 µM.

Regarding `COc1ccc(CC2C(=O)Nc3ccc(F)cc32)cc1C1CCCC1` (stereo not shown) [AAI-5, 3-(3-Cyclopentyl-4-methoxybenzyl)-5-fluoro-1,3-dihydroindol-2-one], the IC50 in assay [1] (setting [7]) is over 100 µM; in assay [2] (Table 5) it was 32.7 µM; in assay [3] (setting [8]), 32.7 µM; in assay [4] (setting [7]) it was over 100 µM.

In the case of `COc1ccc(CC2C(=O)Nc3cc(NC(C)=O)ccc32)cc1-c1cccs1` (stereo not shown) [AAI-6, N-[3-(4-Methoxy-3-thiophen-2-ylbenzyl)-2-oxo-2,3-dihydro-1H-indol-6-yl]-acetamide], the IC50 in assay [1] (setting [7]) was over 100 µM; in assay [2] (Table 5), 27.3 µM; in assay [3] (setting [8]), over 50 µM; in assay [4] (setting [7]), over 100 µM.

Regarding `CC(=O)Nc1ccc2c(c1)NC(=O)C2Cc1ccc(OCCN2CCOCC2)c(C2CCCCC2)c1` (stereo not shown) [AAI-7, N-{3-[3-Cyclohexyl-4-(2-morpholin-4-ylethoxy)-benzyl]-2-oxo-2,3-dihydro-1H-indol-6-yl}-acetamide], the IC50 in assay [1] (setting [7]) is over 100 µM; in assay [2] (Table 5) it was 6.8 µM; in assay [3] (setting [8]) it was 31.1 µM; in assay [4] (setting [7]), over 100 µM.

On to `COc1ccc(CC2C(=O)Nc3ccc(CCN4CCOCC4)cc32)cc1-c1ccsc1` (stereo not shown) [AAI-8, 3-(4-Methoxy-3-thiophen-3-ylbenzyl)-5-(2-morpholin-4-ylethyl)-1,3-dihydroindol-2-one], for which the IC50 was over 100 µM in assay [1] (setting [7]), 11.5 µM in assay [2] (Table 5), over 50 µM in assay [3] (setting [8]) and over 100 µM in assay [4] (setting [7]).

As to `COc1c(C(C)C)cc(CC2C(=O)Nc3ccccc32)cc1C(C)C` (stereo not shown) [AAI-10, 3-(3,5-Diisopropyl-4-methoxybenzyl)-1,3-dihydroindol-2-one], the IC50 is over 100 µM in assay [1] (setting [7]), 34.1 µM in assay [2] (Table 5), over 50 µM in assay [3] (setting [8]) and over 100 µM in assay [4] (setting [7]).

On to `O=C1Nc2ccc(F)cc2C1Cc1ccc(O)c(C2CCCC2)c1` (stereo not shown) [AAI-11, 3-(3-Cyclopentyl-4-hydroxybenzyl)-5-fluoro-1,3-dihydroindol-2-one], for which the IC50 in assay [1] (setting [7]) was over 100 µM; in assay [2] (Table 5), over 50 µM; in assay [3] (setting [8]) it was over 50 µM; in assay [4] (setting [7]), over 100 µM.

In the case of `COc1cccc(-c2ccc3c(c2)NC(=O)C3Cc2ccccc2O)c1` (stereo not shown) [AAI-13, 3-(2-Hydroxybenzyl)-6-(3-methoxyphenyl)-1,3-dihydroindol-2-one], the IC50 in assay [1] (setting [7]) was over 100 µM; in assay [2] (Table 5), over 50 µM; in assay [3] (setting [8]) it was over 50 µM; in assay [4] (setting [7]), over 100 µM.

`Cc1cccc2c1C(Cc1ccc3[nH]ccc3c1)C(=O)N2` (stereo not shown) [AAI-16, 3-(1H-Indol-5-ylmethyl)-4-methyl-1,3-dihydroindol-2-one]: the IC50 is over 100 µM in assay [1] (setting [7]), over 50 µM in assay [2] (Table 5), over 50 µM in assay [3] (setting [8]) and over 100 µM in assay [4] (setting [7]).

In the case of `O=C1Nc2ccccc2C1Cc1ccc2[nH]ccc2c1` (stereo not shown) [AAI-17, 3-(1H-Indol-5-ylmethyl)-1,3-dihydroindol-2-one], the IC50 in assay [1] (setting [7]) is over 100 µM; in assay [2] (Table 5), over 50 µM; in assay [3] (setting [8]) it was over 50 µM; in assay [4] (setting [7]) it was over 100 µM.

For `Cc1[nH]c(CC2C(=O)Nc3ccccc32)c(C)c1CCCN(C)C` (stereo not shown) [AAI-18, 3-[4-(3-Dimethylaminopropyl)-3,5-dimethyl-1H-pyrrol-2-ylmethyl]-1,3-dihydroindol-2-one], the IC50 in assay [1] (setting [7]) was over 100 µM; in assay [2] (Table 5) it was over 50 µM; in assay [3] (setting [8]) it was 3.87 µM; in assay [4] (setting [7]), 0.56 µM.

`COc1ccccc1-c1ccc2c(c1)NC(=O)C2Cc1[nH]c(C)c(CCCN(C)C)c1C` (stereo not shown) [AAI-20, 3-[4-(3-Dimethylamino-propyl)-3,5-dimethyl-1H-pyrrol-2-ylmethyl]-6-(2-methoxy-phenyl)-1,3-dihydro-indol-2-one]: the IC50 was over 100 µM in assay [1] (setting [7]), 29.2 µM in assay [2] (Table 5), 8.81 µM in assay [3] (setting [8]) and 2.13 µM in assay [4] (setting [7]).

On to `COc1cccc(-c2ccc3c(c2)NC(=O)C3Cc2[nH]c(C)c(CCCN(C)C)c2C)c1` (stereo not shown) [AAI-21, 3-[4-(3-Dimethylaminopropyl)-3,5-dimethyl-1H-pyrrol-2-ylmethyl]-6-(3-methoxyphenyl)-1,3-dihydroindol-2-one], for which the IC50 in assay [1] (setting [7]) is 48.7 µM; in assay [2] (Table 5), over 50 µM; in assay [3] (setting [8]), 1.2 µM; in assay [4] (setting [7]) it was 3.42 µM.

For the compound `COc1ccc(-c2ccc3c(c2)NC(=O)C3Cc2[nH]c(C)c(CCCN(C)C)c2C)cc1` (stereo not shown) [AAI-22, 3-[4-(3-Dimethylaminopropyl)-3,5-dimethyl-1H-pyrrol-2-ylmethyl]-6-(4-methoxyphenyl)-1,3-dihydroindol-2-one], the IC50 was over 100 µM in assay [1] (setting [7]), over 50 µM in assay [2] (Table 5), 1.15 µM in assay [3] (setting [8]) and 80 µM in assay [4] (setting [7]).

For the compound `Cc1[nH]c(CC2C(=O)Nc3ccc(Cl)cc32)c(C)c1CCCN(C)C` (stereo not shown) [AAI-23, 5-Chloro-3-[4-(3-dimethylaminopropyl)-3,5-dimethyl-1H-pyrrol-2-ylmethyl]-1,3-dihydroindol-2-one], the IC50 was over 100 µM in assay [1] (setting [7]), over 50 µM in assay [2] (Table 5), 0.35 µM in assay [3] (setting [8]) and 0.81 µM in assay [4] (setting [7]).

In the case of `O=C1Nc2cc(-c3ccccc3)ccc2C1Cc1cccc(F)c1O` (stereo not shown) [AAI-24, 3-(3-Fluoro-2-hydroxybenzyl)-6-phenyl-1,3-dihydroindol-2-one], the IC50 is over 100 µM in assay [1] (setting [7]), 30.9 µM in assay [2] (Table 5), over 50 µM in assay [3] (setting [8]) and over 100 µM in assay [4] (setting [7]).

Turning to `COc1ccc(CC2C(=O)Nc3cc(-c4ccccc4)ccc32)c(O)c1` (stereo not shown) [AAI-25, 3-(2-Hydroxy-4-methoxybenzyl)-6-phenyl-1,3-dihydroindol-2-one], the IC50 in assay [1] (setting [7]) was over 100 µM; in assay [2] (Table 5), over 50 µM; in assay [3] (setting [8]), over 50 µM; in assay [4] (setting [7]), over 100 µM.

As to `Cc1cccc(CC2C(=O)Nc3cccc(CCO)c32)n1` (stereo not shown) [AAI-27, 4-(2-Hydroxyethyl)-3-(6-methylpyridin-2-ylmethyl)-1,3-dihydroindol-2-one], the IC50 in assay [1] (setting [7]) was over 100 µM; in assay [2] (Table 5), over 50 µM; in assay [3] (setting [8]), over 50 µM; in assay [4] (setting [7]), over 100 µM.

Regarding `CC(C)c1cccc(OCCc2cccc3c2CC(=O)N3)c1` [IN-001, 4-[2-(3-Isopropyl-phenoxy)-ethyl]-1,3-dihydro-indol-2-one], the IC50 was over 100 µM in assay [1] (setting [5]), 28.9 µM in assay [2] (Table 7), 35.2 µM in assay [3] (setting [6]) and over 100 µM in assay [4] (setting [5]).

The values are drawn from patent US6689806B1, “Indolinone compounds as kinase inhibitors” (Sugen, Inc., priority 1999, dated 2004).
